# Test results from US20250051403A1, “ANTIMICROBIAL PEPTIDES, VARIANTS AND CHEMICAL ANALOGUES THEREOF AND THEIR USES” (priority 2021, published 2025).
# Read-outs that look alike come from different tables or passages of the source. Positions of bridges follow the written chain, without caps; N, C: chain ends. Residues, ends and D or L forms follow the SMILES beside them.
# Key:
# [1] = tested on: V. alginolyticus (MPV19 IFREMER); experiment: MIC, broth microdilution; assay type: cell-based, Vibrio alginolyticus
# [2] = tested on: Escherichia coli (ATCC 8739); experiment: MIC, broth microdilution; assay type: cell-based; settings: ATCC 8739
# [3] = tested on: Staphylococcus aureus (ATCC 6538P); experiment: MIC, broth microdilution; assay type: cell-based; settings: ATCC 6538
# [4] = tested on: S. aureus (Pasteur); experiment: MIC, broth microdilution; assay type: cell-based, Staphylococcus aureus; settings: Pasteur
# [5] = tested on: S. aureus methicillin resistant USA300 (ATCC BAA-1717); experiment: MIC, broth microdilution; assay type: cell-based, Staphylococcus aureus; settings: USA300
# [6] = tested on: P. aeruginosa Fluoroquinolone resistant (CIP 107398); experiment: MIC, broth microdilution; assay type: cell-based, Pseudomonas aeruginosa; settings: CIP 107398
# [7] = tested on: Acinetobacter baumannii (CIP 103572); experiment: MIC, broth microdilution; assay type: cell-based; settings: CIP 103572
# [8] = tested on: Klebsiella pneumoniae carbapenem-resistant (DSMZ 26371); experiment: MIC, broth microdilution; assay type: cell-based; settings: DSMZ 26371
# [9] = tested on: Enterococcus faecalis Vancomycin-resistant (DSMZ 13591); experiment: MIC, broth microdilution; assay type: cell-based; settings: DSMZ 13591
# [10] = tested on: Helicobacter pylori (ATCC 43504); experiment: MIC, broth microdilution; assay type: cell-based; settings: ATCC 43504
# [11] = tested on: Burkholderia cepacia (DSM 7288); experiment: MIC, broth microdilution; assay type: cell-based; settings: DSM 7288
# [12] = tested on: Serratia marcescens; experiment: MIC, broth microdilution; assay type: cell-based
# [13] = tested on: Pseudomonas sp biofilm; experiment: Biofilm formation assay (crystal violet); assay type: cell-based; settings: 20 μM peptide, 2 h at 37° C. on 48 h biofilm; untreated culture 0.95
# Experimental: Overnight cultures of V. diabolicus and Pseudomonas sp (37° C., 200 rpm) were diluted to an OD600 of 0.1 in MHB medium and 200 μL aliquots of the suspensions were introduced into the wells of a 96 microtiter plates (Nunc). Plates were then incubated at 37° C. without shaking for 48 h. After removal of the standing culture, the wells were washed with MHB medium and Michelicin, Arenicin and Alvinellacin were added, respectively, at a final concentration of 20 μM in MHB. The treatment was performed during 2 h at 37° C. Wells were then washed three times with distilled water and the remaining attached bacteria were fixed with 99% methanol per well for 20 min at room temperature. Afterward, methanol was removed and plates were air-dried. Biofilms were stained with 300 μL of 1% crystal violet (v/v) for 20 min at room temperature, before the residual stain was removed. After washing, the crystal violet bound to the adherent cells was solubilized with 300 μL of 100% ethanol and absorbance was measured at 595 nm (TECAN, sunrise). Sterile medium served as negative control. It is clear on the view of FIG. 3 that Michelicin has a greater antimicrobial activity on a biofilm of Pseudomonoas sp strains than Alvinellacin. For Pseudomonas sp, OD595 is equal to 0.6 when treated with Michelicin, equal to 0.55 when treated with Arenicin and equal to 0.65 when treated with Alvinellacin. […]
# [14] = Cytotoxicity, resazurin cell viability; assay type: cell-based, human; settings: human
# Experimental: The toxicity of Michelicin on human cells was tested as previously described (Borie et al., 2017; Oyama et al., 2017). Briefly, human cells were cultured in Dulbecco's modified essential medium (DMEM) supplemented with 10% fetal calf serum (FCS), 1% L-glutamine and 1% antibiotics (all from Invitrogen). Cells were routinely grown in onto 25 cm^2 flasks maintained in a 5% CO2 incubator at 37° C. For toxicity assay, cells grown on 25 cm^2 flasks were detached using trypsin-EDTA solution (Thermofisher) and seeded into 96-well cell culture plates (Greiner Bio-one) at approximately 10^4 cells per well (counted using Mallasez's chamber). The cells were grown at 37° C. in a 5% CO2 incubator until they reached confluence (approximately 48-72 h of seeding). Wells were then aspirated and increasing concentrations of AMP were added to the cells and incubated for a further 48 h at 37° C. in a 5% CO2 incubator. The wells were then emptied, and cell viability was evaluated using resazurin based in vitro toxicity assay kit (Sigma-Aldrich) following manufacturer's instructions. Briefly, resazurin stock solution was diluted 1:100 in sterile PBS containing calcium and magnesium (PBS++, pH 7.4) and emptied wells were filled with 100 μL of the resazurin diluted solution. After 4 h incubation at 37° C. with the peptide treated cells, fluorescence intensity was measured using microplate reader (SynerMix, Bioteck) (excitation wavelength of 530 nm/emission wavelength of 590 nm). The fluorescence values were normalized by the controls and expressed as percentage of cell viability. The IC50 values of tested AMP on cell viability (i.e. the concentration of peptides causing a reduction of 50% of the cell viability) were calculated using GraphPad® Prism 7 software. Two cell lines were tested: Human Bronchial Epithelial Cell Line (BEAS; ATCC CRL-9609) and Human umbilical vein endothelial cell (HUVEC).
# [15] = tested on: Vibrio alginolyticus
# [16] = tested on: V. diabolicus (HE 800)
# [17] = tested on: Bacillus megaterium
# [18] = tested on: E. coli carbapenem- resistant (DSMZ 22314); settings: DSMZ 22314
# [19] = tested on: A. baumannii antibiotic resistant (CIP 110431); settings: CIP 110431
# [20] = tested on: Mycobacterium tuberculosis mc^26230
# [21] = tested on: M. smegmatis mc^2155
# [22] = tested on: Jurkat human cells; settings: cited from earlier work
structure (smiles),measurement,setting,value
CC(C)C[C@@H]1NC(=O)[C@H](C(C)C)NC(=O)CNC(=O)[C@H](CCCNC(=N)N)NC(=O)[C@H](C(C)C)NC(=O)[C@H](CCCNC(=N)N)NC(=O)[C@H](C(C)C)NC(=O)[C@H](Cc2ccc(O)cc2)NC(=O)[C@H](C)NC(=O)[C@H](Cc2ccc(O)cc2)NC(=O)[C@H](C(C)C)NC(=O)[C@@H](NC(=O)[C@H](Cc2c[nH]c3ccccc23)NC(=O)[C@@H](N)CCCNC(=N)N)CSSC[C@@H](C(=O)N[C@@H](Cc2c[nH]c3ccccc23)C(=O)O)NC(=O)[C@H](CCCNC(=N)N)NC(=O)[C@H](CCCNC(=N)N)NC(=O)[C@H](Cc2ccc(O)cc2)NC(=O)[C@H](CCCNC(=N)N)NC(=O)[C@H](C(C)C)NC1=O [Arenicin] (H-RWCVYAYVRVRGVLVRYRRCW-OH; disulfide 3-20),MIC,[1],0.15 to 0.31 µM
same,MIC with 565 mM NaCl,[1],2.5 to 5 µM
same,MIC,[2],2.5 to 5 µM
same,MIC,[3],1.25 to 2.5 µM
same,MIC,[4],1.25 to 2.5 µM
same,MIC,[5],5 to 10 µM
same,MIC,[6],1.25 to 2.5 µM
same,MIC,[7],1.25 to 2.5 µM
same,MIC,[8],1.25 to 2.5 µM
same,MIC,[9],1.25 to 2.5 µM
same,MIC,[10],1.25 to 2.5 µM
same,MIC,[11],25 µM
same,MIC,[12],>50 µM
same,Biofilm OD595 after treatment,[13],0.55
same,"viability at 48 h, 80 µM",[14]; BEAS human bronchial epithelial cells (ATCC CRL-9609),95%
same,"viability at 48 h, 80 µM",[14]; HUVEC (human umbilical vein endothelial cells),40%
same,MIC,[15],0.15 to 0.31 µM
same,MIC with 565 mM NaCl,[15],0.07 to 0.15 µM
same,MIC,[15]; 24 h,0.15 to 0.31 µM
same,MIC,[16],1.25 to 2.5 µM
same,MIC with 565 mM NaCl,[16],10 to 20 µM
same,MIC,[17],0.07 to 0.15 µM
same,MIC with 565 mM NaCl,[17],20 to 40 µM
same,MIC,[18],2.5 to 5 µM
same,MIC,[19],20 to 40 µM
same,MIC,[20],7.1 to 12.2 µM
same,MIC,[21],0.7 to 10 µM
same,Cytotoxicity towards Jurkat human cells,[22],cytotoxic
